Experimental findings from patent US8143408B2, “N-(8-heteroaryltetrahydronaphtalene-2yl) or N-(5-heteroarylchromane-3-yl) carboxamide derivatives for the treatment of pain” (AstraZeneca AB, priority 2007, dated 2012) are described below.

Structures are written as SMILES.

T1 sequence (Q15858 whole entry): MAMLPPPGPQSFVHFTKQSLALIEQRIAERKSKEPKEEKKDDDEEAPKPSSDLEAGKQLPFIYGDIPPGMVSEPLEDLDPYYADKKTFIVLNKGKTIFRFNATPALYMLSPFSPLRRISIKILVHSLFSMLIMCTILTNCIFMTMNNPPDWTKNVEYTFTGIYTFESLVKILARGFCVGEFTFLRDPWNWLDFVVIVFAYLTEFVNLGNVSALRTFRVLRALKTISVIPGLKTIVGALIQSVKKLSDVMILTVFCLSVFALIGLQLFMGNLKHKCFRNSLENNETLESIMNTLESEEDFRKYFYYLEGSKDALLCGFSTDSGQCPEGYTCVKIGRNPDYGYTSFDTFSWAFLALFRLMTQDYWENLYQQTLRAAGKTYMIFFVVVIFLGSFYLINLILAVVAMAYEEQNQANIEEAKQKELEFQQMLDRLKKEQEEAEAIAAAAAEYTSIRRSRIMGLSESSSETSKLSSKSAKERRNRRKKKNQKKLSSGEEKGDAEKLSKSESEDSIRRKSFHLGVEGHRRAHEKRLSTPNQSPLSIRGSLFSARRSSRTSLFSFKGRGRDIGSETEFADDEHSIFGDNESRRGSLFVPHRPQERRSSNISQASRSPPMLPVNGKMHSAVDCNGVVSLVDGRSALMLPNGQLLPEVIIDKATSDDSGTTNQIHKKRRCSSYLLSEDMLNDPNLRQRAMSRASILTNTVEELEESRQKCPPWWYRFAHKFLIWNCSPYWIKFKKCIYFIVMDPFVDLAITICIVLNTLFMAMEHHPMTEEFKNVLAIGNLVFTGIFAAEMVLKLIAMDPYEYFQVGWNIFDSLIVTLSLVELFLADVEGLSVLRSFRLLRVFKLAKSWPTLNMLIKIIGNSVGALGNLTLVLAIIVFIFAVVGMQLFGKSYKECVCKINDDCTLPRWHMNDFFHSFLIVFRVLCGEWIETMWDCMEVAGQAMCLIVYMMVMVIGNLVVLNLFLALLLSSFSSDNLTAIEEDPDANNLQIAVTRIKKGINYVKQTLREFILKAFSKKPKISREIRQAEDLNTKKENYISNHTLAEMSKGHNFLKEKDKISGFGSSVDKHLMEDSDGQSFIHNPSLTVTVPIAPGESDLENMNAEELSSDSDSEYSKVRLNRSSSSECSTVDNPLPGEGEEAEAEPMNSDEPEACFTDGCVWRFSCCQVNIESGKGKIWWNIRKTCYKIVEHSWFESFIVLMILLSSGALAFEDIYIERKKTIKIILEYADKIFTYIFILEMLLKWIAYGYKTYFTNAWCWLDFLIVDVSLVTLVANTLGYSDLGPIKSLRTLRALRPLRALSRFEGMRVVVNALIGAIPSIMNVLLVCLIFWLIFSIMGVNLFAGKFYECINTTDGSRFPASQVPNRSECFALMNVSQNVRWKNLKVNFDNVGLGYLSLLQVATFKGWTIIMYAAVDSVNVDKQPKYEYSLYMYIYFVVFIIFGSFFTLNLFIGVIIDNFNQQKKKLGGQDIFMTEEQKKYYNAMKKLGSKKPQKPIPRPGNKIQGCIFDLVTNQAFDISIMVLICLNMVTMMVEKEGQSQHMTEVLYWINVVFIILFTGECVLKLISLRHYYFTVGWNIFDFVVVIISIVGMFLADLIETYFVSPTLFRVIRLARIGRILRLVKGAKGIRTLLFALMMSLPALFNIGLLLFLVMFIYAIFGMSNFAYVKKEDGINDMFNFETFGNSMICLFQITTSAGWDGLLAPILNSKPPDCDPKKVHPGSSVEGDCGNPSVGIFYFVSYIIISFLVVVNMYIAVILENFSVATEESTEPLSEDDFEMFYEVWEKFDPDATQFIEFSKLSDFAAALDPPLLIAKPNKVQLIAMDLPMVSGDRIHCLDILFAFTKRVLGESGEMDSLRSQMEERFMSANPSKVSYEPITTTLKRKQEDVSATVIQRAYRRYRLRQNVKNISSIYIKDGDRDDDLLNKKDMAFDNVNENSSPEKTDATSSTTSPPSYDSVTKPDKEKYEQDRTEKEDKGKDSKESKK

The assay addresses T1, Nav1.7 voltage-gated sodium channel (Homo sapiens, UniProt Q15858).
T1 construct: Gene(s) encoding the full-length protein of the voltage-gated sodium channel of interest are cloned and expressed; expressed in transfected cells
Nature of the assay: Whole-cell voltage clamp electrophysiology assay. In kind it is cell-based. As to conditions: cells stably expressing the voltage-gated sodium channel of interest. Summed up: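 Cells expressing full-length channel, exposed to drug by integrated pipetting on automated patch-clamp platforms or by microperfusion in conventional whole-cell patch clamp. Channels activated by a voltage protocol depolarising from a defined holding potential; buffers per platform manufacturer.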
For the compound `O=C(N[C@@H]1COc2cccc(-c3ccncc3)c2C1)c1cnc2ccccc2n1` [Example 41, N-[(3S)-5-pyridin-4-yl-3,4-dihydro-2H-chromen-3-yl]quinoxaline-2-carboxamide], it took 5010 nM to reach half-maximal inhibition (IC50).
For `COCCOc1ccc(C(=O)N[C@@H]2COc3cccc(-c4cccnc4)c3C2)cn1` [Example 137, 6-(2-methoxyethoxy)-N-[(3S)-5-pyridin-3-yl-3,4-dihydro-2H-chromen-3-yl]nicotinamide] the value was 794 nM; for `CC(C)Oc1ccc(C(=O)N[C@@H]2COc3cccc(-c4cccnc4)c3C2)cn1` [Example 50, 6-isopropoxy-N-[(3S)-5-pyridin-3-yl-3,4-dihydro-2H-chromen-3-yl]nicotinamide], 63.1 nM.
For `O=C(N[C@@H]1COc2cccc(-c3cccnc3)c2C1)c1ccc(OCC2CCO2)nc1` (stereo partly drawn) [Example 139, 6-(oxetan-2-ylmethoxy)-N-[(3S)-5-pyridin-3-yl-3,4-dihydro-2H-chromen-3-yl]nicotinamide] the value was 1580 nM; for `COc1ncc(-c2cccc3c2C[C@H](NC(=O)c2ccc(OC4CCCOC4)nc2)CO3)cn1` (stereo partly drawn) [Example 157, N-[(3S)-5-(2-methoxypyrimidin-5-yl)-3,4-dihydro-2H-chromen-3-yl]-6-(tetrahydro-2H-pyran-3-yloxy)nicotinamide], 1000 nM.
As to `COc1ncccc1-c1cccc2c1C[C@H](NC(=O)c1ccc(OCCC(F)(F)F)nc1)CO2` [Example 72, N-[(3S)-5-(2-methoxypyridin-3-yl)-3,4-dihydro-2H-chromen-3-yl]-6-(3,3,3-trifluoropropoxy)nicotinamide], half-maximal inhibition (IC50) required 501 nM.
As for `Cc1ncc(-c2cccc3c2C[C@H](NC(=O)c2ccc(OC4CCOC4)nc2)CC3)cn1` (stereo partly drawn) [Example 159, N-[(2R)-8-(2-methylpyrimidin-5-yl)-1,2,3,4-tetrahydronaphthalen-2-yl]-6-(tetrahydrofuran-3-yloxy)nicotinamide], 6310 nM corresponded to half-maximal inhibition (IC50).
For `O=C(N[C@@H]1COc2cccc(-c3cnc(C4CC4)nc3)c2C1)c1ccc(OCCCF)nc1` [Example 96, N-[(3S)-5-(2-cyclopropylpyrimidin-5-yl)-3,4-dihydro-2H-chromen-3-yl]-6-(3-fluoropropoxy)nicotinamide] the value was 50.1 nM.
In the case of `COc1ncc(-c2cccc3c2C[C@H](NC(=O)c2ccc(OCC4CCCCO4)nc2)CO3)cn1` (stereo partly drawn) [Example 122, N-[(3S)-5-(2-methoxypyrimidin-5-yl)-3,4-dihydro-2H-chromen-3-yl]-6-(tetrahydro-2H-pyran-2-ylmethoxy)nicotinamide], 2000 nM corresponded to half-maximal inhibition (IC50).
For `COc1ncc(-c2cccc3c2C[C@H](NC(=O)c2ccc(OC(C)C)nc2)CO3)cc1C(=O)N(C)C` [Example 207, 5-[(3S)-3-{[(6-isopropoxypyridin-3-yl)carbonyl]amino}-3,4-dihydro-2H-chromen-5-yl]-2-methoxy-N,N-dimethylnicotinamide] the value was 3980 nM; for `COc1ncc(-c2cccc3c2C[C@H](NC(=O)c2cnc(OCC(F)(F)F)nc2C)CC3)cn1` [Example 90, N-[(2R)-8-(2-methoxypyrimidin-5-yl)-1,2,3,4-tetrahydronaphthalen-2-yl]-4-methyl-2-(2,2,2-trifluoroethoxy)pyrimidine-5-carboxamide], 1580 nM.
For `Cc1cc(-c2cccc3c2C[C@H](NC(=O)c2cnc(OC4CCCOC4)nc2)CO3)cnc1F` (stereo partly drawn) [Example 153, N-[(3S)-5-(6-fluoro-5-methylpyridin-3-yl)-3,4-dihydro-2H-chromen-3-yl]-2-(tetrahydro-2H-pyran-3-yloxy)pyrimidine-5-carboxamide] the value was 631 nM.
Compound `COc1ncc(-c2cccc3c2C[C@H](NC(=O)c2ccc(OCCOCC(F)(F)F)nc2)CO3)cc1F` [Example 180, N-[(3S)-5-(5-fluoro-6-methoxypyridin-3-yl)-3,4-dihydro-2H-chromen-3-yl]-6-[2-(2,2,2-trifluoroethoxy)ethoxy]nicotinamide] had a half-inhibitory concentration (IC50) of 316 nM.
For `O=C(N[C@@H]1COc2cccc(-c3ccncc3)c2C1)c1ccc(OCC(F)(F)F)nc1` [Example 18, N-[(3S)-5-pyridin-4-yl-3,4-dihydro-2H-chromen-3-yl]-6-(2,2,2-trifluoroethoxy)nicotinamide] the value was 100 nM; for `O=C(N[C@@H]1CCc2cccc(-c3ccncc3F)c2C1)c1ccc(OCC(F)(F)F)nc1` [Example 40, N-[(2R)-8-(3-fluoropyridin-4-yl)-1,2,3,4-tetrahydronaphthalen-2-yl]-6-(2,2,2-trifluoroethoxy)nicotinamide], 50.1 nM.
As to `COc1cc(-c2cccc3c2C[C@H](NC(=O)c2ccc(OC(C)C)nc2)CO3)ccn1` [Example 58, 6-isopropoxy-N-[(3S)-5-(2-methoxypyridin-4-yl)-3,4-dihydro-2H-chromen-3-yl]nicotinamide], inhibition was half-maximal at 398 nM (IC50).
For `O=C(N[C@@H]1COc2cccc(-c3ccc4nccn4c3)c2C1)c1ccc(OC2CCOCC2)nc1` [Example 169, N-[(3S)-5-imidazo[1,2-a]pyridin-6-yl-3,4-dihydro-2H-chromen-3-yl]-6-(tetrahydro-2H-pyran-4-yloxy)nicotinamide] the value was 200 nM; for `COc1ncc(-c2cccc3c2C[C@H](NC(=O)c2ccc(C(=O)NCCC(F)(F)F)nc2)CC3)cn1` [Example 167, N^5-[(2R)-8-(2-methoxypyrimidin-5-yl)-1,2,3,4-tetrahydronaphthalen-2-yl]-N^2-(3,3,3-trifluoropropyl)pyridine-2,5-dicarboxamide], 398 nM.
Regarding `CCc1ncc(-c2cccc3c2C[C@H](NC(=O)c2ccc(OCC(F)(F)F)nc2)CO3)cn1` [Example 95, N-[(3S)-5-(2-ethylpyrimidin-5-yl)-3,4-dihydro-2H-chromen-3-yl]-6-(2,2,2-trifluoroethoxy)nicotinamide], half-maximal inhibition (IC50) was put at 158 nM.
For `COc1ncc(-c2cccc3c2C[C@H](NC(=O)c2ccc(OCC(F)(F)F)nc2)CO3)cc1C(=O)N(C)C` [Example 208, 2-methoxy-N,N-dimethyl-5-[(3S)-3-({[6-(2,2,2-trifluoroethoxy)pyridin-3-yl]carbonyl}amino)-3,4-dihydro-2H-chromen-5-yl]nicotinamide] the value was 1580 nM; for `COc1ncc(-c2cccc3c2C[C@H](NC(=O)c2ccc(C(=O)N(C)CC(C)C)nc2)CO3)cn1` [Example 112, N^2-isobutyl-N^5-[(3S)-5-(2-methoxypyrimidin-5-yl)-3,4-dihydro-2H-chromen-3-yl]-N^2-methylpyridine-2,5-dicarboxamide], 1580 nM; for `CC(C)Oc1ccc(C(=O)N[C@@H]2COc3cccc(-c4ccc(F)nc4)c3C2)cn1` [Example 67, N-[(3S)-5-(6-fluoropyridin-3-yl)-3,4-dihydro-2H-chromen-3-yl]-6-isopropoxynicotinamide], 501 nM.
For `CC(C)Oc1ccc(C(=O)N[C@@H]2CCc3cccc(-c4cccnc4F)c3C2)cn1` [Example 74, N-[(2R)-8-(2-fluoropyridin-3-yl)-1,2,3,4-tetrahydronaphthalen-2-yl]-6-isopropoxynicotinamide] the value was 251 nM; for `O=C(N[C@@H]1COc2cccc(-c3cccnc3)c2C1)c1ccc(C(=O)NCCC(F)(F)F)nc1` [Example 132, N^5-[(3S)-5-pyridin-3-yl-3,4-dihydro-2H-chromen-3-yl]-N^2-(3,3,3-trifluoropropyl)pyridine-2,5-dicarboxamide], 79.4 nM.

As usually defined, the IC50 is the concentration that inhibits the measured activity by half. Read a high IC50 as lower potency.
